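Results reflect a 48-hour exposure of cells in 96-well plates to compound at five concentrations. Here, GI50 denotes the concentration required for 50% inhibition of growth.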 Calls of active or inactive are those of the source. Rule as the data show it: active = GI50 up to about 1.1 µM and inactive = higher.
Columns and labels:
Test in all cases: DTP human tumour cell line panel, 48 h
786-0 = system: 786-0
A549 = system: A549
ACHN = system: ACHN
BT-549 = system: BT-549
CAKI-1 = system: CAKI-1
CCRF-CEM = system: CCRF-CEM
COLO 205 = system: COLO 205
DU-145 = system: DU-145
EKVX = system: EKVX
HCC 2998 = system: HCC 2998
HCT-116 = system: HCT-116
HCT-15 = system: HCT-15
HL-60 = system: HL-60
HOP-62 = system: HOP-62
HT-29 = system: HT-29
Hs-578T = system: Hs-578T
IGROV-1 = system: IGROV-1
K562 = system: K562
KM12 = system: KM12
LOX IMVI = system: LOX IMVI
M14 = system: M14
MCF7 = system: MCF7
MDA-MB-231 = system: MDA-MB-231
MOLT-4 = system: MOLT-4
Malme-3M = system: Malme-3M
NCI-H226 = system: NCI-H226
NCI-H23 = system: NCI-H23
NCI-H460 = system: NCI-H460
NCI-H522 = system: NCI-H522
NCI/ADR-RES = system: NCI/ADR-RES
OVCAR-4 = system: OVCAR-4
OVCAR-5 = system: OVCAR-5
OVCAR-8 = system: OVCAR-8
PC-3 = system: PC-3
RXF 393 = system: RXF 393
SF-268 = system: SF-268
SF-295 = system: SF-295
SF-539 = system: SF-539
SK-MEL-28 = system: SK-MEL-28
SK-MEL-2 = system: SK-MEL-2
SK-MEL-5 = system: SK-MEL-5
SK-OV-3 = system: SK-OV-3
SN12C = system: SN12C
SNB-19 = system: SNB-19
SNB-75 = system: SNB-75
SR = system: SR
SW-620 = system: SW-620
T47D = system: T47D
TK-10 = system: TK-10
U-251 = system: U-251
UACC-257 = system: UACC-257
UACC-62 = system: UACC-62
UO-31 = system: UO-31
HOP-92 = system: HOP-92
MDA-MB-435 = system: MDA-MB-435
OVCAR-3 = system: OVCAR-3

O=C(O)C1(C(=O)O)CC1(C(=O)O)C(=O)O
GI50 (786-0): > 100 µM (inactive) | GI50 (A549): > 100 µM (inactive) | GI50 (ACHN): > 100 µM (inactive) | GI50 (BT-549): > 100 µM (inactive) | GI50 (CAKI-1): > 100 µM (inactive) | GI50 (CCRF-CEM): > 100 µM (inactive) | GI50 (COLO 205): > 100 µM (inactive) | GI50 (DU-145): > 100 µM (inactive) | GI50 (EKVX): > 100 µM (inactive) | GI50 (HCC 2998): > 100 µM (inactive) | GI50 (HCT-116): > 100 µM (inactive) | GI50 (HCT-15): > 100 µM | GI50 (HL-60): > 100 µM (inactive) | GI50 (HOP-62): > 100 µM (inactive) | GI50 (HT-29): > 100 µM (inactive) | GI50 (Hs-578T): > 100 µM (inactive) | GI50 (IGROV-1): > 100 µM (inactive) | GI50 (K562): > 100 µM (inactive) | GI50 (KM12): > 100 µM (inactive) | GI50 (LOX IMVI): > 100 µM (inactive) | GI50 (M14): > 100 µM (inactive) | GI50 (MCF7): > 100 µM (inactive) | GI50 (MDA-MB-231): > 100 µM (inactive) | GI50 (MOLT-4): > 100 µM (inactive) | GI50 (Malme-3M): > 100 µM (inactive) | GI50 (NCI-H226): > 100 µM (inactive) | GI50 (NCI-H23): > 100 µM (inactive) | GI50 (NCI-H460): > 100 µM (inactive) | GI50 (NCI-H522): > 100 µM (inactive) | GI50 (NCI/ADR-RES): > 100 µM (inactive) | GI50 (OVCAR-4): > 100 µM (inactive) | GI50 (OVCAR-5): > 100 µM (inactive) | GI50 (OVCAR-8): > 100 µM (inactive) | GI50 (PC-3): > 100 µM (inactive) | GI50 (RXF 393): 32.6 µM (inactive) | GI50 (SF-268): > 100 µM (inactive) | GI50 (SF-295): > 100 µM (inactive) | GI50 (SF-539): > 100 µM (inactive) | GI50 (SK-MEL-28): > 100 µM (inactive) | GI50 (SK-MEL-2): > 100 µM (inactive) | GI50 (SK-MEL-5): > 100 µM (inactive) | GI50 (SK-OV-3): > 100 µM (inactive) | GI50 (SN12C): > 100 µM (inactive) | GI50 (SNB-19): > 100 µM (inactive) | GI50 (SNB-75): > 100 µM (inactive) | GI50 (SR): > 100 µM (inactive) | GI50 (SW-620): > 100 µM (inactive) | GI50 (T47D): > 100 µM (inactive) | GI50 (TK-10): > 100 µM (inactive) | GI50 (U-251): > 100 µM (inactive) | GI50 (UACC-257): > 100 µM (inactive) | GI50 (UACC-62): > 100 µM (inactive) | GI50 (UO-31): > 100 µM (inactive)

CCOC(=O)c1c(-c2ccc(OC)cc2)ccn1C
GI50 (786-0): > 10 µM (inactive) | GI50 (A549): > 10 µM (inactive) | GI50 (ACHN): > 10 µM (inactive) | GI50 (BT-549): > 10 µM (inactive) | GI50 (CAKI-1): > 10 µM (inactive) | GI50 (CCRF-CEM): > 10 µM (inactive) | GI50 (COLO 205): > 10 µM (inactive) | GI50 (DU-145): > 10 µM (inactive) | GI50 (EKVX): > 10 µM (inactive) | GI50 (HCC 2998): > 10 µM (inactive) | GI50 (HCT-116): > 10 µM (inactive) | GI50 (HCT-15): > 10 µM | GI50 (HOP-62): > 10 µM (inactive) | GI50 (HOP-92): > 10 µM (inactive) | GI50 (HT-29): > 10 µM (inactive) | GI50 (Hs-578T): > 10 µM (inactive) | GI50 (IGROV-1): > 10 µM (inactive) | GI50 (K562): > 10 µM (inactive) | GI50 (KM12): > 10 µM (inactive) | GI50 (LOX IMVI): 0.00227 µM (active) | GI50 (M14): > 10 µM (inactive) | GI50 (MCF7): > 10 µM (inactive) | GI50 (MDA-MB-231): > 10 µM (inactive) | GI50 (MDA-MB-435): > 10 µM (inactive) | GI50 (MOLT-4): > 10 µM (inactive) | GI50 (Malme-3M): > 10 µM (inactive) | GI50 (NCI-H226): > 10 µM (inactive) | GI50 (NCI-H23): > 10 µM (inactive) | GI50 (NCI-H460): > 10 µM (inactive) | GI50 (NCI-H522): > 9.62 µM (inactive) | GI50 (NCI/ADR-RES): > 10 µM (inactive) | GI50 (OVCAR-3): > 10 µM (inactive) | GI50 (OVCAR-4): > 10 µM (inactive) | GI50 (OVCAR-5): > 10 µM (inactive) | GI50 (OVCAR-8): > 10 µM (inactive) | GI50 (RXF 393): 9.1 µM (inactive) | GI50 (SF-268): > 8.41 µM (inactive) | GI50 (SF-295): > 10 µM (inactive) | GI50 (SF-539): 0.0975 µM (active) | GI50 (SK-MEL-28): 4.54 µM (inactive) | GI50 (SK-MEL-2): > 10 µM (inactive) | GI50 (SK-MEL-5): > 10 µM (inactive) | GI50 (SK-OV-3): > 10 µM (inactive) | GI50 (SN12C): > 10 µM (inactive) | GI50 (SNB-19): > 10 µM (inactive) | GI50 (SNB-75): > 10 µM (inactive) | GI50 (SR): > 10 µM (inactive) | GI50 (SW-620): > 10 µM (inactive) | GI50 (T47D): > 10 µM (inactive) | GI50 (TK-10): > 10 µM (inactive) | GI50 (U-251): > 10 µM (inactive) | GI50 (UACC-257): > 10 µM (inactive) | GI50 (UACC-62): > 10 µM (inactive) | GI50 (UO-31): > 10 µM (inactive)
